One block for each molecule: values may come before it.
Columns and labels:
MOLM-13 = experiment: cells; format: functional, cell-based; conditions: Homo sapiens, MOLM-13, 72 h
Description: Antiproliferative activity against human MOLM-13 cells assessed as inhibition of cell growth measured after 72 hrs by CellTiterGlo assay

[1] = molecular target: Histone-lysine N-methyltransferase 2A/WDR5 (Homo sapiens, UniProt P61964); experiment: Inhibition of MLL1/WDR5 (unknown origin) protein-protein interaction incubated for 2 hrs by FP analysis; format: protein assay
Histone deacetylase 3 = Histone deacetylase 3 (Homo sapiens, UniProt O15379); experiment: Inhibition of HDAC3 (unknown origin) by fluorescence based assay
MV4-11 [2] = experiment: cells; format: functional, cell-based; conditions: Homo sapiens, MV4-11, 72 h
Description: Antiproliferative activity against human MV4-11 cells assessed as inhibition of cell growth measured after 72 hrs by CellTiterGlo assay

[3] = molecular target: T1, Protein deacetylase HDAC6 (Homo sapiens, UniProt Q9UBN7); experiment: Inhibition of HDAC6 (unknown origin) by fluorescence based assay
T1 sequence (Q9UBN7 whole entry): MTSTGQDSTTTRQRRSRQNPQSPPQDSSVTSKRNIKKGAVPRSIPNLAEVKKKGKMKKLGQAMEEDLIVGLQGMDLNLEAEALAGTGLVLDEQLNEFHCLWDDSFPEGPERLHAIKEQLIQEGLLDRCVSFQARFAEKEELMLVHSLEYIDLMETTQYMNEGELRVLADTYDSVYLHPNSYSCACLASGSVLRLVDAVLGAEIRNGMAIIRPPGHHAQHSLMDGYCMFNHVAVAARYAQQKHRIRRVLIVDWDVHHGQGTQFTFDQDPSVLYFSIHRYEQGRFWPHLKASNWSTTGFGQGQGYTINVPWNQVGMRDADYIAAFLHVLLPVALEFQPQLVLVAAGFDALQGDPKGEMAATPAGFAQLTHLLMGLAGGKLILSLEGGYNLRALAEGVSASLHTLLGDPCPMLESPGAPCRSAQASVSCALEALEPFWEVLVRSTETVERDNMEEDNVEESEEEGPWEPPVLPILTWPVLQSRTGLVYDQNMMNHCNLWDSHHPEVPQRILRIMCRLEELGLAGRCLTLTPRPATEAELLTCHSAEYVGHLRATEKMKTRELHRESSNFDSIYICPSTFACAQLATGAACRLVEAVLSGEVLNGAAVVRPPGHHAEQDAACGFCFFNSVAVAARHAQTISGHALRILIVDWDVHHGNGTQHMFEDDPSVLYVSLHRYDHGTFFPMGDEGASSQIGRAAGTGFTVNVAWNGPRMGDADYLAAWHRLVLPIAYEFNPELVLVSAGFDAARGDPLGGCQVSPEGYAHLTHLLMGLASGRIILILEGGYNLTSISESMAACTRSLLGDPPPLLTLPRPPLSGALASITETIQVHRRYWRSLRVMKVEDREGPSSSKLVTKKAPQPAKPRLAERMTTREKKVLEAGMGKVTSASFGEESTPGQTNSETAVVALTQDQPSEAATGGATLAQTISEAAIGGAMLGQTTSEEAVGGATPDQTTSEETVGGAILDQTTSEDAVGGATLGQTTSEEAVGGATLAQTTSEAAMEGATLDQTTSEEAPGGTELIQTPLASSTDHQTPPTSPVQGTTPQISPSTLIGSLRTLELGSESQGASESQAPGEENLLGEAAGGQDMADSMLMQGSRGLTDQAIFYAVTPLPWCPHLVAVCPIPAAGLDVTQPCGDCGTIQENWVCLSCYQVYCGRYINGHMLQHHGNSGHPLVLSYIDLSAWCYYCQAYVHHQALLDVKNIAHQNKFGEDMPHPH

Histone deacetylase 1 = Histone deacetylase 1 (Homo sapiens, UniProt Q13547); experiment: Inhibition of HDAC1 (unknown origin) by fluorescence based assay
Histone deacetylase 11 = molecular target: T2, Histone deacetylase 11 (Homo sapiens, UniProt Q96DB2); experiment: Inhibition of HDAC11 (unknown origin) by fluorescence based assay
T2 sequence (Q96DB2 whole entry): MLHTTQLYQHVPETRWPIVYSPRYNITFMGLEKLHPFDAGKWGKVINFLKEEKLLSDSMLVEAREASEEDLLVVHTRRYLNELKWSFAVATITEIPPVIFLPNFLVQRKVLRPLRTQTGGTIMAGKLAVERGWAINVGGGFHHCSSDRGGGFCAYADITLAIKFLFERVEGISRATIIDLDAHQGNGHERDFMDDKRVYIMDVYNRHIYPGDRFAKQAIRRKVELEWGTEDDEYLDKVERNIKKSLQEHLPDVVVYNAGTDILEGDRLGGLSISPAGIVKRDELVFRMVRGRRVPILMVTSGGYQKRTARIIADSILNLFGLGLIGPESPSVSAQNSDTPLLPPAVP

Histone deacetylase 8 = molecular target: T3, Histone deacetylase 8 (Homo sapiens, UniProt Q9BY41); experiment: Inhibition of HDAC8 (unknown origin) by fluorescence based assay
T3 sequence (Q9BY41 whole entry): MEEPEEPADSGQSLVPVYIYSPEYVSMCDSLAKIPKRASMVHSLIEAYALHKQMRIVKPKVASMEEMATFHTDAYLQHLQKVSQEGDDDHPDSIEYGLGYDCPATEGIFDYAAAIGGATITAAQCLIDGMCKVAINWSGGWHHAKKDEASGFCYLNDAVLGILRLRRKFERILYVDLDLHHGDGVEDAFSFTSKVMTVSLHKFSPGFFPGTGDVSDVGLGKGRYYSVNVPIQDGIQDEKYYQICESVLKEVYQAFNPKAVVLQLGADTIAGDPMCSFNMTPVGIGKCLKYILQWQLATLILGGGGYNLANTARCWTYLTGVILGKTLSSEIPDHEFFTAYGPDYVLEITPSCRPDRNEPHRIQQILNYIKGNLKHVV

[4] = molecular target: Histone-lysine N-methyltransferase 2A (Homo sapiens, UniProt Q03164); experiment: Inhibition of MLL1 (unknown origin) by fluorescence based assay
Histone deacetylase 2 = Histone deacetylase 2 (Homo sapiens, UniProt Q92769); experiment: Inhibition of HDAC2 (unknown origin) by fluorescence based assay
Histone deacetylase 4 = Histone deacetylase 4 (Homo sapiens, UniProt P56524); experiment: Inhibition of HDAC4 (unknown origin) by fluorescence based assay
MV4-11 [5] = experiment: Induction of apoptosis in human MV4-11 cells assessed as necrotic cells at 200 nmol/L incubated for 72 hrs by Annexin V/PI staining based flow cytometry analysis (reference value: 0.46%); format: functional
MV4-11 [6] = experiment: Induction of apoptosis in human MV4-11 cells assessed as early apoptotic cells at 200 nmol/L incubated for 72 hrs by Annexin V/PI staining based flow cytometry analysis (reference value: 4.17 %); format: functional
MV4-11 [7] = experiment: Induction of apoptosis in human MV4-11 cells assessed as late apoptotic cells at 200 nmol/L incubated for 72 hrs by Annexin V/PI staining based flow cytometry analysis (reference value: 5.14%); format: functional
MV4-11 [8] = experiment: Induction of apoptosis in human MV4-11 cells assessed as viable cells at 200 nmol/L incubated for 72 hrs by Annexin V/PI staining based flow cytometry analysis (reference value: 90.23%); format: functional

Sequence of Histone deacetylase 1 (Q13547 whole entry): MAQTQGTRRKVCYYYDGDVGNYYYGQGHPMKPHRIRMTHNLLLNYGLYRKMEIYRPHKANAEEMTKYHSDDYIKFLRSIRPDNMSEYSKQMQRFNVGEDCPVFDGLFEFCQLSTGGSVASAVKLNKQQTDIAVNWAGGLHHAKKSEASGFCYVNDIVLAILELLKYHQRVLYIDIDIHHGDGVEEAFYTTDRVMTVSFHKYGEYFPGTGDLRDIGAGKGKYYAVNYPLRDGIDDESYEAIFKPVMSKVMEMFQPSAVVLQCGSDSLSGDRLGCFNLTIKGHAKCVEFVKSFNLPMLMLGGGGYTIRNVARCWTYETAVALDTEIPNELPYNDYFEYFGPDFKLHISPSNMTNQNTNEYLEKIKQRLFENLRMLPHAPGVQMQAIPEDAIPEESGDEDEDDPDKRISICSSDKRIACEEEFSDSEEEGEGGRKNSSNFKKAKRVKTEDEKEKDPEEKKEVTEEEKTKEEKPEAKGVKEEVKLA
Sequence of Histone deacetylase 3 (O15379 whole entry): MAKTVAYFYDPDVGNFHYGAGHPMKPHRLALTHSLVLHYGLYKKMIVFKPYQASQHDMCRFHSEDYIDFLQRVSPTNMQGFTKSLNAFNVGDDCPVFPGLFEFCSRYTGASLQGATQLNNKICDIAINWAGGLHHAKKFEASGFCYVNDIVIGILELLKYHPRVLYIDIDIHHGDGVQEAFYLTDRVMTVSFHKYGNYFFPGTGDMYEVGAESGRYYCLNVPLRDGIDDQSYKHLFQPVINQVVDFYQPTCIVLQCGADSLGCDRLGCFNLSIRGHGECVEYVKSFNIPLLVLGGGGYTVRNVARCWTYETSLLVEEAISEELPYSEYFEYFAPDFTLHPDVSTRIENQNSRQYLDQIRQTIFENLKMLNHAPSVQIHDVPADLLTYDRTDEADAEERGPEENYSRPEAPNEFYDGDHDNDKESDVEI
Sequence of Histone-lysine N-methyltransferase 2A (Q03164 1-2718 limits assumed): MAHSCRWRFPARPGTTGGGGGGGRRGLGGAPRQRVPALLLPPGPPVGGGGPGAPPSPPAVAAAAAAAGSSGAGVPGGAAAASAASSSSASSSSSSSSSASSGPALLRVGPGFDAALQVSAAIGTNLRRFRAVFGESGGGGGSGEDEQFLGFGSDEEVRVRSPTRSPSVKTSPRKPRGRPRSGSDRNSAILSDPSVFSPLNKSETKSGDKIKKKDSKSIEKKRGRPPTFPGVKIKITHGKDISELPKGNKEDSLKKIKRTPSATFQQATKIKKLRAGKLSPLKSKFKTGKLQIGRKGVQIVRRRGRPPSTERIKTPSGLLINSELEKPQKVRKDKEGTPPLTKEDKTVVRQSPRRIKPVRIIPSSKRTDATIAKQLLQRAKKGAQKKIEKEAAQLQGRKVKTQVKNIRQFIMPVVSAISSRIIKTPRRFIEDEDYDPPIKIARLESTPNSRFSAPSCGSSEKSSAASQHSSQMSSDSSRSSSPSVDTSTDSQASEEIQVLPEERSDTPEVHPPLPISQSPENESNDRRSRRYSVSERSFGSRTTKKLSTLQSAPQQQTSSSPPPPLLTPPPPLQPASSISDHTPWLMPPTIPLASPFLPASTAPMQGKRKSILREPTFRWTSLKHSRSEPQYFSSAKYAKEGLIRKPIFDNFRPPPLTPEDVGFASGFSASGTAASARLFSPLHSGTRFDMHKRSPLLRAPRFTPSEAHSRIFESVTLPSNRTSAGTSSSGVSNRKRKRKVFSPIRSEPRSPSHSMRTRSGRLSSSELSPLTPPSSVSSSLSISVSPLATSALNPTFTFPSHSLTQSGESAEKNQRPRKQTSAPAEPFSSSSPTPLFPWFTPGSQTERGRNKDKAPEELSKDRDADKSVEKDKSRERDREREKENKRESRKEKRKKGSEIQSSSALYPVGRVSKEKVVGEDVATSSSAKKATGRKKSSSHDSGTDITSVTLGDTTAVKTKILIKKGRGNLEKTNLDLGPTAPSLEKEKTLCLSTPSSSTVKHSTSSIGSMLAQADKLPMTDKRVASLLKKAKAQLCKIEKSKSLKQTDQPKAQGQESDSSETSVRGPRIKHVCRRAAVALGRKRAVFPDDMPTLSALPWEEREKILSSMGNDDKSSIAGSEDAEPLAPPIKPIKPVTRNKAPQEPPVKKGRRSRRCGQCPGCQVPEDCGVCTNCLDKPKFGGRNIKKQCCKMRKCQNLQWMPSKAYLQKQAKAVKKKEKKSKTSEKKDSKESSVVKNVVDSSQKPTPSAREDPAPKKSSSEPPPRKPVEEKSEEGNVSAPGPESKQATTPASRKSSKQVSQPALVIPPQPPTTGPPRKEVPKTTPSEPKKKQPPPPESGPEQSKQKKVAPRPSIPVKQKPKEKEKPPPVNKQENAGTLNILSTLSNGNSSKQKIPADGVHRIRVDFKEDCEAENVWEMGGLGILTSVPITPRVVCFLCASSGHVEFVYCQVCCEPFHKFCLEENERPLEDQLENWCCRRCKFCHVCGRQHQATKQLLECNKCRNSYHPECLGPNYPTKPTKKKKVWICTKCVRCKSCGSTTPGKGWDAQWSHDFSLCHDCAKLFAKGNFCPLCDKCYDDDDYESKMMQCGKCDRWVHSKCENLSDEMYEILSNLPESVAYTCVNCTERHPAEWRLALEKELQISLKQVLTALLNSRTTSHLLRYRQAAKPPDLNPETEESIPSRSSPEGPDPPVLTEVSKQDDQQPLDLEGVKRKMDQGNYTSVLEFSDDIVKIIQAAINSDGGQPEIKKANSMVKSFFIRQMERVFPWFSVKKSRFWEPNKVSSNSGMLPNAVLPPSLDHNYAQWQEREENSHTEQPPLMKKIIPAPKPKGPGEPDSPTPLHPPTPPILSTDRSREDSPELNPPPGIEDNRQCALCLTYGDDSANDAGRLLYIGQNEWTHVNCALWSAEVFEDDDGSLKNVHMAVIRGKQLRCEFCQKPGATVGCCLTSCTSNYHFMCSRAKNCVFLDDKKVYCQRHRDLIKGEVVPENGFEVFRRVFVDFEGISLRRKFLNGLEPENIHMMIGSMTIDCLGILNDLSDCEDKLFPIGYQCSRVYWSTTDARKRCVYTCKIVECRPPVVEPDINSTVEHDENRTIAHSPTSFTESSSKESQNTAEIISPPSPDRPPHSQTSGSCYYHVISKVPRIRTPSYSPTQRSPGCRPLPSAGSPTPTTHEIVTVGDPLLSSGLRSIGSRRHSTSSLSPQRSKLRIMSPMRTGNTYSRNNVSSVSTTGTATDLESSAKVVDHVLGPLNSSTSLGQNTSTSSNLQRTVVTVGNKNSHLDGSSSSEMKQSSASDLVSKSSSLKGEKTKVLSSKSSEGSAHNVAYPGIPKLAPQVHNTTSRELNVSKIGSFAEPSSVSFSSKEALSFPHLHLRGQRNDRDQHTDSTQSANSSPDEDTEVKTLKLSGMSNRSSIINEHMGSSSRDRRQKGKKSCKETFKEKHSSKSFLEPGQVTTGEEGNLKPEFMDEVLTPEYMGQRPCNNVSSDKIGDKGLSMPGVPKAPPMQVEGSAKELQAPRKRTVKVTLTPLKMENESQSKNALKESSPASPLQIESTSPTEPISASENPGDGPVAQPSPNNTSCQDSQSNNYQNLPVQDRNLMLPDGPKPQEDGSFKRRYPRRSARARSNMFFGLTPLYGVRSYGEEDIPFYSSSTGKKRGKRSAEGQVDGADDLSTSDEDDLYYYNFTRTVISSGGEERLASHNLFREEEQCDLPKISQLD
Sequence of Histone-lysine N-methyltransferase 2A (Q03164 2719-3969 limits assumed): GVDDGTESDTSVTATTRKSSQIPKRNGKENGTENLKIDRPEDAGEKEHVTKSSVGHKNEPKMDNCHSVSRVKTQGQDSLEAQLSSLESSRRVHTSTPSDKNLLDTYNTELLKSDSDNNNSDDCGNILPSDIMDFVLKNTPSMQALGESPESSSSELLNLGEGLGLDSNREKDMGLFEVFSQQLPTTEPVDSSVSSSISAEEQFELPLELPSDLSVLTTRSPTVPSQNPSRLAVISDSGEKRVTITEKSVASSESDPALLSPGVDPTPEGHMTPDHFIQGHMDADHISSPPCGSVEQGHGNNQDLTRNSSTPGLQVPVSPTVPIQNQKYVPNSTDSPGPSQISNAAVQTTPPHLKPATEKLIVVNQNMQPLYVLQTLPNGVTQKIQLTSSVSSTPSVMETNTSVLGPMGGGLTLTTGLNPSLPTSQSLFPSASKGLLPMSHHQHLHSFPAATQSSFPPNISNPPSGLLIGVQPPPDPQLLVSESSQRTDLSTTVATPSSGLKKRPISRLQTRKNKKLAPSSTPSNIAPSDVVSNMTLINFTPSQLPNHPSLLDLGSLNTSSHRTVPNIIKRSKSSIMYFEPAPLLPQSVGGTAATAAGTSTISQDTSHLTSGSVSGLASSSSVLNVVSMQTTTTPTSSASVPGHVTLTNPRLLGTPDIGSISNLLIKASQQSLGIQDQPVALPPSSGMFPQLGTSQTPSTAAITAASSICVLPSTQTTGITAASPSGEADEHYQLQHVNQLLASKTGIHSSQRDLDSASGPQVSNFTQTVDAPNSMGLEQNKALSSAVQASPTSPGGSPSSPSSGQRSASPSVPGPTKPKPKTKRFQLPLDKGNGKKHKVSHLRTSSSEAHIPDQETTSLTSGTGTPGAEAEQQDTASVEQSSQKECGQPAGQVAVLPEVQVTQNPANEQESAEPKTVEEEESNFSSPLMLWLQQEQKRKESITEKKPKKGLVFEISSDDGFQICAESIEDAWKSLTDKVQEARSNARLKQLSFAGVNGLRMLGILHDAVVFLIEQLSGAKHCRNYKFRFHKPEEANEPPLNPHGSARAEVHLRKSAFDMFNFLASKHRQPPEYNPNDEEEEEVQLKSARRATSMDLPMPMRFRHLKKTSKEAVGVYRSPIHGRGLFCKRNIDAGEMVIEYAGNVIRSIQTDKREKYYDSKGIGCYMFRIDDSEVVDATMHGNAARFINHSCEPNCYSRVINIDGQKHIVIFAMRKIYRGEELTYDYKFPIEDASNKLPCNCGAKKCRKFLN

SMILES: Cc1c(F)c(N)cc(C(=O)Nc2cc(-c3ccc(NC(=O)c4ccc(CC(=O)NO)cc4)cc3)ccc2N2CCN(C)CC2)c1Cl
IC50 [1]: 226 nM

SMILES: Cc1c(F)c(N)cc(C(=O)Nc2cc(-c3ccc(NC(=O)CCc4ccc(/C=C/C(=O)NO)cc4)cc3)ccc2N2CCN(C)CC2)c1Cl
IC50 (MOLM-13): 3220 nM
IC50 [1]: 382 nM
IC50 (Histone deacetylase 3): 586 nM
IC50 (MV4-11 [2]): 145 nM
IC50 [3]: 157 nM
IC50 (Histone deacetylase 1): 925 nM

SMILES: Cc1c(F)c(N)cc(C(=O)Nc2cc(-c3ccc(NC(=O)CCCCCC(=O)NO)cc3)ccc2N2CCN(C)CC2)c1Cl
IC50 [1]: 181 nM

SMILES: Cc1c(F)c(N)cc(C(=O)Nc2cc(-c3ccc(NC(=O)CCCCCCCC(=O)NO)cc3)ccc2N2CCN(C)CC2)c1Cl
IC50 [1]: 230 nM

SMILES: Cc1c(F)c(N)cc(C(=O)Nc2cc(-c3ccc(C(=O)NCCCCCCCC(=O)NO)cc3)ccc2N2CCN(C)CC2)c1Cl
IC50 [1]: 188 nM

SMILES: Cc1c(F)c(N)cc(C(=O)Nc2cc(-c3ccc(NC(=O)c4ccc(/C=C/C(=O)NO)cc4)cc3)ccc2N2CCN(C)CC2)c1Cl
IC50 (MOLM-13): 2580 nM
IC50 [1]: 435 nM
IC50 (Histone deacetylase 3): 5900 nM
IC50 (MV4-11 [2]): 122 nM
IC50 [3]: 1200 nM
IC50 (Histone deacetylase 1): 6980 nM

SMILES: Cc1c(F)c(N)cc(C(=O)Nc2cc(-c3ccc(C(=O)Nc4ccccc4N)cc3)ccc2N2CCN(C)CC2)c1Cl
IC50 [1]: 215 nM

SMILES: Cc1c(F)c(N)cc(C(=O)Nc2cc(-c3ccc(NC(=O)c4ccccc4N)cc3)ccc2N2CCN(C)CC2)c1Cl
IC50 [1]: 410 nM
IC50 (Histone deacetylase 3): 10000 nM

SMILES: O=C(CCCCCCC(=O)Nc1ccccc1)NO [VORINOSTAT]
Activity (MV4-11 [5]): 1.42%
Activity (MV4-11 [6]): 14.43%
Activity (MV4-11 [7]): 20.55%
Activity (MV4-11 [8]): 63.59%

Other lines, results leading:

IC50 (MOLM-13): 310 nM
IC50 [1]: 69 nM
IC50 (Histone deacetylase 3): 663 nM
IC50 (MV4-11 [2]): 115 nM
IC50 [3]: 157 nM
IC50 (Histone deacetylase 1): 831 nM
SMILES: Cc1c(F)c(N)cc(C(=O)Nc2cc(-c3ccc(NC(=O)Cc4ccc(/C=C/C(=O)NO)cc4)cc3)ccc2N2CCN(C)CC2)c1Cl

IC50 [1]: 40 nM
SMILES: Cc1c(F)c(N)cc(C(=O)Nc2cc(-c3ccc(C(=O)NCCCCC(=O)NO)cc3)ccc2N2CCN(C)CC2)c1Cl

IC50 [1]: 71 nM
SMILES: Cc1c(F)c(N)cc(C(=O)Nc2cc(-c3ccc(C(=O)NCCCCCC(=O)NO)cc3)ccc2N2CCN(C)CC2)c1Cl

IC50 [1]: 33 nM
SMILES: Cc1c(F)c(N)cc(C(=O)Nc2cc(-c3ccc(NC(=O)CCCCC(=O)NO)cc3)ccc2N2CCN(C)CC2)c1Cl

IC50 [1]: 43 nM
SMILES: Cc1c(F)c(N)cc(C(=O)Nc2cc(-c3ccc(NC(=O)CCCC(=O)NO)cc3)ccc2N2CCN(C)CC2)c1Cl

IC50 (Histone deacetylase 11): 7610 nM
IC50 [1]: 41 nM
IC50 (Histone deacetylase 8): > 10000 nM
IC50 [4]: 392 nM
IC50 (Histone deacetylase 2): 99 nM
IC50 (Histone deacetylase 4): 3960 nM
SMILES: Cc1c(F)c(N)cc(C(=O)Nc2cc(-c3ccc(NC(=O)CCCCCCC(=O)NO)cc3)ccc2N2CCN(C)CC2)c1Cl

IC50 [1]: 40 nM
SMILES: Cc1c(F)c(N)cc(C(=O)Nc2cc(-c3ccc(C(=O)NCCCCCCC(=O)NO)cc3)ccc2N2CCN(C)CC2)c1Cl

IC50 [1]: 30 nM
SMILES: Cc1c(F)c(N)cc(C(=O)Nc2cc(-c3ccc(C(=O)NCCCC(=O)NO)cc3)ccc2N2CCN(C)CC2)c1Cl

IC50 [1]: 87 nM
SMILES: Cc1c(F)c(N)cc(C(=O)Nc2cc(-c3ccc(NC(=O)Cc4ccc(C(=O)NO)cc4)cc3)ccc2N2CCN(C)CC2)c1Cl

From ChEMBL document CHEMBL6096706, “Discovery of WDR5-MLL1 and HDAC Dual-Target Inhibitors for the Treatment of Acute Myeloid Leukemia” (J Med Chem, 2025)
